Measurements as given in ChEMBL document CHEMBL3885881, “DrugMatrix”.

Species on record: Rattus norvegicus
Test: DrugMatrix - Regimen: Daily Repeat
Type: toxicity, organism-based, Sprague-Dawley
Set-up: regimen Daily Repeat, gender Male, age 6-8 weeks
Details: in vivo, po, route oral GAVAGE, vehicle 100 % WATER; for ABSOLUTE BASOPHIL / ABSOLUTE EOSINOPHIL / ABSOLUTE LYMPHOCYTE / ABSOLUTE MONOCYTE / ABSOLUTE SEGMENTED NEUTROPHIL / BASOPHIL / EOSINOPHIL / ERYTHROCYTE COUNT / HEMATOCRIT / HEMOGLOBIN / LEUKOCYTE COUNT / LYMPHOCYTE / MEAN CORPUSCULAR HEMOGLOBIN / MEAN CORPUSCULAR HEMOGLOBIN CONCENTRATION / MEAN CORPUSCULAR VOLUME / MONOCYTE / NEUTROPHIL / NUCLEATED RED BLOOD CELLS / PLATELET COUNT: tissue Blood; for ALANINE AMINOTRANSFERASE / ALBUMIN / ALKALINE PHOSPHATASE / ASPARTATE AMINOTRANSFERASE / BLOOD UREA NITROGEN / CARBON DIOXIDE / CHLORIDE / CHOLESTEROL / CREATINE PHOSPHOKINASE / CREATININE / GLUCOSE / LACTATE DEHYDROGENASE / LIPASE / PHOSPHORUS / POTASSIUM / SODIUM / TOTAL BILIRUBIN / TOTAL PROTEIN / URIC ACID: tissue Plasma
[1] = 56 mg/kg, 120 h, dose level Low, time 5 day
[2] = 476 mg/kg, 72 h, dose level High, time 3 day
[3] = 476 mg/kg, 120 h, dose level High, time 5 day

CC[C@H]1OC(=O)[C@H](C)[C@@H](O[C@H]2C[C@@](C)(OC)[C@@H](O)[C@H](C)O2)[C@H](C)[C@@H](O[C@@H]2O[C@H](C)C[C@H](N(C)C)[C@H]2O)[C@](C)(OC)C[C@@H](C)C(=O)[C@H](C)[C@@H](O)[C@]1(C)O [CLARITHROMYCIN]
ABSOLUTE BASOPHIL [1]: 0 CELLS/uL
ABSOLUTE EOSINOPHIL [1]: 40 CELLS/uL
ABSOLUTE LYMPHOCYTE [1]: 7764 CELLS/uL
ABSOLUTE MONOCYTE [1]: 32 CELLS/uL
ABSOLUTE SEGMENTED NEUTROPHIL [1]: 364 CELLS/uL
BASOPHIL [1]: 0%
EOSINOPHIL [1]: 0.67%
ERYTHROCYTE COUNT [1]: 5.84 x10E6/uL
HEMATOCRIT [1]: 35.03%
HEMOGLOBIN [1]: 13.63 G/DL
LEUKOCYTE COUNT [1]: 8.2 x10E3/uL
LYMPHOCYTE [1]: 94.67%
MEAN CORPUSCULAR HEMOGLOBIN [1]: 23.37 pg
MEAN CORPUSCULAR HEMOGLOBIN CONCENTRATION [1]: 38.9 G/DL
MEAN CORPUSCULAR VOLUME [1]: 60.03 fL
MONOCYTE [1]: 0.33%
NEUTROPHIL [1]: 4.33%
NUCLEATED RED BLOOD CELLS [1]: 0 /100WBC
PLATELET COUNT [1]: 1127.33 x10E3/uL
ALANINE AMINOTRANSFERASE [1]: 56 u/L
ALBUMIN [1]: 3.97 G/DL
ALKALINE PHOSPHATASE [1]: 322 u/L
ASPARTATE AMINOTRANSFERASE [1]: 90.33 u/L
BLOOD UREA NITROGEN [1]: 16.67 mg/dL
CARBON DIOXIDE [1]: 34 mmol/L
CHLORIDE [1]: 98.67 MEQ/L
CHOLESTEROL [1]: 84 mg/dL
CREATINE PHOSPHOKINASE [1]: 286 u/L
CREATININE [1]: 0.11 mg/dL
GLUCOSE [1]: 141 mg/dL
LACTATE DEHYDROGENASE [1]: 125 u/L
LIPASE [1]: 13 u/L
PHOSPHORUS [1]: 11.17 mg/dL
POTASSIUM [1]: 6.34 MEQ/L
SODIUM [1]: 144.27 MEQ/L
TOTAL BILIRUBIN [1]: 0.17 mg/dL
TOTAL PROTEIN [1]: 5.97 G/DL
URIC ACID [1]: 0.73 mg/dL
ABSOLUTE BASOPHIL [2]: 0 CELLS/uL
ABSOLUTE EOSINOPHIL [2]: 46 CELLS/uL
ABSOLUTE LYMPHOCYTE [2]: 13692.67 CELLS/uL
ABSOLUTE MONOCYTE [2]: 172 CELLS/uL
ABSOLUTE SEGMENTED NEUTROPHIL [2]: 556 CELLS/uL
BASOPHIL [2]: 0%
EOSINOPHIL [2]: 0.33%
ERYTHROCYTE COUNT [2]: 5.74 x10E6/uL
HEMATOCRIT [2]: 36.57%
HEMOGLOBIN [2]: 14.2 G/DL
LEUKOCYTE COUNT [2]: 14.47 x10E3/uL
LYMPHOCYTE [2]: 94.67%
MEAN CORPUSCULAR HEMOGLOBIN [2]: 24.73 pg
MEAN CORPUSCULAR HEMOGLOBIN CONCENTRATION [2]: 38.83 G/DL
MEAN CORPUSCULAR VOLUME [2]: 63.7 fL
MONOCYTE [2]: 1%
NEUTROPHIL [2]: 4%
NUCLEATED RED BLOOD CELLS [2]: 0 /100WBC
PLATELET COUNT [2]: 1345 x10E3/uL
ALANINE AMINOTRANSFERASE [2]: 55.33 u/L
ALBUMIN [2]: 3.8 G/DL
ALKALINE PHOSPHATASE [2]: 227.33 u/L
ASPARTATE AMINOTRANSFERASE [2]: 72.33 u/L
BLOOD UREA NITROGEN [2]: 8.33 mg/dL
CARBON DIOXIDE [2]: 29.67 mmol/L
CHLORIDE [2]: 99.33 MEQ/L
CHOLESTEROL [2]: 68 mg/dL
CREATINE PHOSPHOKINASE [2]: 191.67 u/L
CREATININE [2]: 0.37 mg/dL
GLUCOSE [2]: 161 mg/dL
LACTATE DEHYDROGENASE [2]: 112 u/L
LIPASE [2]: 28.67 u/L
PHOSPHORUS [2]: 11.53 mg/dL
POTASSIUM [2]: 6.1 MEQ/L
SODIUM [2]: 142.2 MEQ/L
TOTAL BILIRUBIN [2]: 0.13 mg/dL
TOTAL PROTEIN [2]: 5.83 G/DL
URIC ACID [2]: 1.23 mg/dL
ABSOLUTE BASOPHIL [3]: 0 CELLS/uL
ABSOLUTE EOSINOPHIL [3]: 0 CELLS/uL
ABSOLUTE LYMPHOCYTE [3]: 10830 CELLS/uL
ABSOLUTE MONOCYTE [3]: 144.67 CELLS/uL
ABSOLUTE SEGMENTED NEUTROPHIL [3]: 592 CELLS/uL
BASOPHIL [3]: 0%
EOSINOPHIL [3]: 0%
ERYTHROCYTE COUNT [3]: 5.53 x10E6/uL
HEMATOCRIT [3]: 34.87%
HEMOGLOBIN [3]: 13.93 G/DL
LEUKOCYTE COUNT [3]: 11.57 x10E3/uL
LYMPHOCYTE [3]: 94%
MEAN CORPUSCULAR HEMOGLOBIN [3]: 25.2 pg
MEAN CORPUSCULAR HEMOGLOBIN CONCENTRATION [3]: 40 G/DL
MEAN CORPUSCULAR VOLUME [3]: 63.07 fL
MONOCYTE [3]: 1%
NEUTROPHIL [3]: 5%
NUCLEATED RED BLOOD CELLS [3]: 0 /100WBC
PLATELET COUNT [3]: 1171.67 x10E3/uL
ALANINE AMINOTRANSFERASE [3]: 58 u/L
ALBUMIN [3]: 3.67 G/DL
ALKALINE PHOSPHATASE [3]: 256.67 u/L
ASPARTATE AMINOTRANSFERASE [3]: 67 u/L
BLOOD UREA NITROGEN [3]: 13.33 mg/dL
CARBON DIOXIDE [3]: 34.67 mmol/L
CHLORIDE [3]: 98 MEQ/L
CHOLESTEROL [3]: 64.33 mg/dL
CREATINE PHOSPHOKINASE [3]: 178.33 u/L
CREATININE [3]: 0.18 mg/dL
GLUCOSE [3]: 126.67 mg/dL
LACTATE DEHYDROGENASE [3]: 105.33 u/L
LIPASE [3]: 11.67 u/L
PHOSPHORUS [3]: 9.63 mg/dL
POTASSIUM [3]: 6.01 MEQ/L
SODIUM [3]: 142.53 MEQ/L
TOTAL BILIRUBIN [3]: 0.13 mg/dL
TOTAL PROTEIN [3]: 5.9 G/DL
URIC ACID [3]: 0.6 mg/dL
